In US20090075978A1, “SUBSTITUTED PROPIOLIC ACID AMIDES AND THEIR USE FOR PRODUCING DRUGS” (Grunenthal GmbH, priority 2005, published 2009):

Molecular target: T1, mGluR5 receptor (pig) (Sus scrofa, UniProt I3LUI7)
T1 construct: 450 μg of protein from brain homogenate is incubated; from tissue; host or cells: pig brain hemispheres without medulla, cerebellum and pons
Assay: [3H]-MPEP binding in the mGluR5 receptor binding assay (pig brain homogenate)
Details: 5 nM [3H]-MPEP; for IC50: pig brain homogenate
Experimental: I. Method for Determining the Inhibition of [^3H]-MPEP Binding in the mGluR5 Receptor Binding Assay
Pig brain homogenate is produced by homogenisation (Polytron Pt 3000, Kinematica AG, 10,000 revolutions per minute for 90 seconds) of pig brain hemispheres without medulla, cerebellum and pons in a buffer of pH 8.0 (30 mM Hepes, Sigma, order number H3375+1 tablet Complete Roche Diagnostics, order number 1836145 made up to 100 ml) in a ratio of 1:20 (brain weight/volume) and differential centrifugation at 900×g and 40,000×g. 450 μg of protein from brain homogenate is incubated in each case in 250 μl incubation batches in 96-well microtitre plates with 5 nM ^3[H]-MPEP (Tocris, order number R1212) (MPEP=[…]) and the compounds to be investigated ([…]) in the buffer (as above) at room temperature for 60 min.
The batches are then filtered with the assistance of a Brandel Cell Harvester (Brandel, Robotic 9600 model) on Unifilter plates with glass filter mats (Perkin Elmer, order number 6005177) and then washed 3 times with buffer (as above) using 250 μl per sample. The filter plates are then dried for 60 min at 55° C. Then 30 μl of Ultima Gold™ scintillating material (Packard BioScience, order number 6013159) is added per well and after 3 hours the samples are measured using the β counter (Microbeta, Perkin Elmer). Nonspecific binding is determined by the addition of 10 μM MPEP (Tocris, order number 1212).

[1] = 10 μM test compound, 450 μg protein from pig brain homogenate, 60 min, room temperature

T1 sequence (I3LUI7 19-1212): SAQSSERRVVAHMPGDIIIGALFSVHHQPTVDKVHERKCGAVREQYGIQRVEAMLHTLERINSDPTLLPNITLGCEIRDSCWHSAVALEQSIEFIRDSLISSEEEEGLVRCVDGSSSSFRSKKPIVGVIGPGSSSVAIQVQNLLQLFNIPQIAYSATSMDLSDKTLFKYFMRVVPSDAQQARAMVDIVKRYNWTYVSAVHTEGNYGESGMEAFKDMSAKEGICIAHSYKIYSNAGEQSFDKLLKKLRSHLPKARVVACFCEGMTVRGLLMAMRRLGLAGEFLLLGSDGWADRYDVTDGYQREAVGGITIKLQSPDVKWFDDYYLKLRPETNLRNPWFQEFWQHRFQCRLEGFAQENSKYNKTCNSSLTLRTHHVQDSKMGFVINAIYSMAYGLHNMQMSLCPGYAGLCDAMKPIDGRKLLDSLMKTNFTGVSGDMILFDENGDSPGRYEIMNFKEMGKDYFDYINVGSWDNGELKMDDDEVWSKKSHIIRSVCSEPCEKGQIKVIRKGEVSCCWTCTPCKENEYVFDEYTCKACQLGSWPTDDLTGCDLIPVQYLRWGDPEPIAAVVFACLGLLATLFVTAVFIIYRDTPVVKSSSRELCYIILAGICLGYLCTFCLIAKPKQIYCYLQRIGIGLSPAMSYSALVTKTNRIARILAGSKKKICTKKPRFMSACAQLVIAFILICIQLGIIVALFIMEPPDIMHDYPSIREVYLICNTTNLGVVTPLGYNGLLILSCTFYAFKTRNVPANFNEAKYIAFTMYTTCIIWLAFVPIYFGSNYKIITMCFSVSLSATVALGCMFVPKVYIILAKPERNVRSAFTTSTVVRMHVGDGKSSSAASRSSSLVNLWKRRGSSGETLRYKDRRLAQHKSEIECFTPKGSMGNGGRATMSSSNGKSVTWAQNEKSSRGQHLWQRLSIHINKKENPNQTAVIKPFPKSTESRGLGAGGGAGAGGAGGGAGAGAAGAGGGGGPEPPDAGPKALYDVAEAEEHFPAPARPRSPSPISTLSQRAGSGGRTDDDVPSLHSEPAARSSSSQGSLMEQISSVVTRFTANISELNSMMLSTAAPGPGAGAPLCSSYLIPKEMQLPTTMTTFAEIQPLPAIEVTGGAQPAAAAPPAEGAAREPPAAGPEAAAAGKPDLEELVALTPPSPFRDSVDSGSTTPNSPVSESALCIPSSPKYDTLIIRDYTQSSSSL

SMILES | IC50 [nM] | mGluR5 receptor (pig) (10 μM) Inhibition (%) [1] [%] | further results
O=C(C#Cc1ccccc1)N1CCCc2ccccc21 [Example 2, 1-(3-phenyl-propiolyl)-1,2,3,4-tetrahydro-quinoline] | 1750 |  | 
O=C(C#Cc1ccccc1)N1CCc2ccccc21 [Example 3, 1-(3-phenyl-propiolyl)-2,3-dihydro-indole] | 7940 |  | 
O=C(C#Cc1ccccc1)N1CCc2ncccc2C1 [Example 4, 6-(3-phenyl-propiolyl)-5,6,7,8-tetrahydro-[1,6]naphthyridine] | 2320 |  | 
O=C(C#Cc1ccccc1)N1Cc2ccccc2C1 [Example 6, 2-(3-phenyl-propiolyl)-2,3-dihydro-isoindole] | 1820 |  | 
O=C(C#Cc1ccccn1)N1CCc2ccccc2C1 [Example 7, 2-(3-pyrid-2-yl-propiolyl)-1,2,3,4-tetrahydro-isoquinoline] | 8570 |  | 
Cc1noc2c1CN(C(=O)C#Cc1ccccc1)CC2 [Example 8, 3-methyl-5-(3-phenyl-propiolyl)-4,5,6,7-tetrahydro-isoxazolo[4,5-c]pyridine] | 3550 |  | 
O=C(C#Cc1ccccc1)N1CCc2onc(-c3ccccc3)c2C1 [Example 9, 3-phenyl-5-(3-phenyl-propiolyl)-4,5,6,7-tetrahydro-isoxazolo[4,5-c]pyridine] | 2360 |  | 
O=C(C#Cc1ccccc1)N1CCn2cnnc2C1 [Example 10, 7-(3-phenyl-propiolyl)-5,6,7,8-tetrahydro-[1,2,4]triazolo[4,3-a]pyrazine] |  |  | inhibition at 10 µM [1]: 16%
COc1cc2c(cc1OC)CN(C(=O)C#Cc1cccc(Cl)c1)CC2 [Example 11, 2-(3-(3-chlorophenyl)-propiolyl)-6,7-dimethoxy-1,2,3,4-tetrahydro-isoquinoline] | 2720 |  | 
O=C(C#Cc1cccc(Cl)c1)N1CCc2cc(O)c(O)cc2C1 [Example 13, 2-(3-(3-chlorophenyl)-propiolyl)-7,6-dihydroxy-1,2,3,4-tetrahydro-isoquinoline] | 2540 |  | 
COc1ccc2c(c1)CCN(C(=O)C#Cc1ccccc1)C2 [Example 14, 6-methoxy-2-(3-phenyl-propiolyl)-1,2,3,4-tetrahydro-isoquinoline] | 3100 |  | 
COc1cc2c(cc1O)CN(C(=O)C#Cc1cccc(Cl)c1)CC2 [Example 15, 2-(3-(3-chlorophenyl)-propiolyl)-7-hydroxy-6-methoxy-1,2,3,4-tetrahydro-isoquinoline] | 720 |  | 
COc1cc2c(cc1O)CCN(C(=O)C#Cc1cccc(Cl)c1)C2 [Example 16, 2-(3-(3-chlorophenyl)-propiolyl)-6-hydroxy-7-methoxy-1,2,3,4-tetrahydro-isoquinoline] | 720 |  | 
COc1ccc2c(c1)CCN(C(=O)C#Cc1cccc(Cl)c1)C2 [Example 17, 2-(3-(3-chlorophenyl)-propiolyl)-6-methoxy-1,2,3,4-tetrahydro-isoquinoline] | 240 |  | 
Cc1ccc2c(c1)CCN(C(=O)C#Cc1cccc(Cl)c1)C2 [Example 20, 2-(3-(3-chlorophenyl)-propiolyl)-6-methyl-1,2,3,4-tetrahydro-isoquinoline] | 55 |  | 
O=C(C#Cc1cccc(Cl)c1)N1CCCc2ccccc2C1 [Example 21, 2-(3-(3-chlorophenyl)-propiolyl)-2,3,4,5-tetrahydro-1H-benzo[c]azepine] | 110 |  | 
COc1ccc2c(c1)CN(C(=O)C#Cc1cccc(Cl)c1)CC2 [Example 22, 2-(3-(3-chlorophenyl)-propiolyl)-7-methoxy-1,2,3,4-tetrahydro-isoquinoline] | 76 |  | 
O=C(C#Cc1cccc(Cl)c1)N1CCn2ccnc2C1 [Example 23, 7-(3-(3-chlorophenyl)-propiolyl)-5,6,7,8-tetrahydroimidazo[1,2-a]pyrazine] | 320 |  | 

SMILES | IC50 [nM] | mGluR5 receptor (pig) (10 μM) Inhibition (%) [1] [%] | further results
Cc1cccc2c1CN(C(=O)C#Cc1cccc(Cl)c1)CC2 [Example 24, 2-(3-(3-chlorophenyl)-propiolyl)-8-methyl-1,2,3,4-tetrahydro-isoquinoline] | 4.5 |  | 
Cc1ccc2c(c1)CN(C(=O)C#Cc1cccc(Cl)c1)CC2 [Example 25, 2-(3-(3-chlorophenyl)-propiolyl)-7-methyl-1,2,3,4-tetrahydro-isoquinoline] | 4.7 |  | 
Cc1cccc2c1CCN(C(=O)C#Cc1cccc(Cl)c1)C2 [Example 26, 2-(3-(3-chlorophenyl)-propiolyl)-5-methyl-1,2,3,4-tetrahydro-isoquinoline] | 4.7 |  | 
O=C(C#Cc1cccc(Cl)c1)N1CCn2cccc2C1 [Example 27, 2-(3-(3-chlorophenyl)-propiolyl)-1,2,3,4-tetrahydropyrrolo[1,2-a]pyrazine] | 26 |  | 
O=C(C#Cc1cccc(Cl)c1)N1CCc2ccc(O)cc2C1 [Example 28] | 87 |  | 
COc1cccc2c1CN(C(=O)C#Cc1cccc(Cl)c1)CC2 [Example 29, 2-(3-(3-chlorophenyl)-propiolyl)-8-methoxy-1,2,3,4-tetrahydro-isoquinoline] | 8.4 |  | 
Cc1cccc2c1C(C)N(C(=O)C#Cc1cccc(Cl)c1)CC2 (stereo not drawn) [Example 31, 2-(3-(3-chlorophenyl)-propiolyl)-1,8-dimethyl-1,2,3,4-tetrahydro-isoquinoline] | 2.6 |  | 
CC1Cc2ccccc2N1C(=O)C#Cc1ccc(F)cc1F (stereo not drawn) [Example 33, 1-(3-(2,4-difluorophenyl)-propiolyl)-2-methyl-indoline] |  | 27 | 
COc1cccc(C#CC(=O)N2CCc3ccccc3C2)c1 [Example 34, 2-(3-(3-methoxyphenyl)-propiolyl)-1,2,3,4-tetrahydro-isoquinoline] |  | 12 | 
Cc1cc(C#CC(=O)N2CCc3ccccc3C2)ccc1F [Example 35, 2-(3-(4-fluoro-3-methylphenyl)-propiolyl)-1,2,3,4-tetrahydro-isoquinoline] |  | 77 | 
Cc1cc(C#CC(=O)N2c3ccccc3CC2C)ccc1F (stereo not drawn) [Example 36, 1-(3-(4-fluoro-3-methylphenyl)-propiolyl)-2-methyl-indoline] |  | 27 | 
O=C(C#Cc1ccccc1F)N1CCc2ccccc2C1 [Example 37, 2-(3-(2-fluorophenyl)-propiolyl)-1,2,3,4-tetrahydro-isoquinoline] |  | 83 | 
CC1Cc2ccccc2N1C(=O)C#Cc1ccccc1F (stereo not drawn) [Example 38, 1-(3-(2-fluorophenyl)-propiolyl)-2-methyl-indoline] |  | 49 | 
Cc1ccc(C#CC(=O)N2CCc3ccccc3C2)cc1 [Example 39, 2-(3-(4-tolyl)-propiolyl)-1,2,3,4-tetrahydro-isoquinoline] |  | 44 | 
Cc1ccc(C#CC(=O)N2c3ccccc3CC2C)cc1 (stereo not drawn) [Example 40, 1-(3-(4-tolyl)-propiolyl)-2-methyl-indoline] |  | 34 | 
O=C(C#Cc1ccc(C(F)(F)F)cc1)N1CCc2ccccc2C1 [Example 41, 2-(3-(4-trifluoromethylphenyl)-propiolyl)-1,2,3,4-tetrahydro-isoquinoline] |  | 16 | 
O=C(C#Cc1ccccc1)N1CCc2ccccc2C1 [Example 43, 2-(3-phenyl-propiolyl)-1,2,3,4-tetrahydro-isoquinoline] |  | 84 | 
CC1Cc2ccccc2N1C(=O)C#Cc1ccccc1 (stereo not drawn) [Example 44, 1-(3-phenyl-propiolyl)-2-methyl-indoline] |  | 39 | 
